pIC50: −log10 of the molar value. Structures can show the parent of a compound that is named as a salt.
Biological target: notum carboxyesterase enzyme (Homo sapiens (Human), UniProt Q6P988)
Experiment: Biochemical Notum Enzymatic Activity Assay (OPTS substrate, fluorescence)
Settings: 2 μM OPTS solution, 2.38 nM notum enzyme solution, 1 hour incubation at room temperature, fluorescence ex 485 nm / em 520 nm; n≥2
From the text: Plate layout and measured fluorescence values were input into Dotmatics Studies data management tool.

Sequence of notum carboxyesterase enzyme (Q6P988 20-496): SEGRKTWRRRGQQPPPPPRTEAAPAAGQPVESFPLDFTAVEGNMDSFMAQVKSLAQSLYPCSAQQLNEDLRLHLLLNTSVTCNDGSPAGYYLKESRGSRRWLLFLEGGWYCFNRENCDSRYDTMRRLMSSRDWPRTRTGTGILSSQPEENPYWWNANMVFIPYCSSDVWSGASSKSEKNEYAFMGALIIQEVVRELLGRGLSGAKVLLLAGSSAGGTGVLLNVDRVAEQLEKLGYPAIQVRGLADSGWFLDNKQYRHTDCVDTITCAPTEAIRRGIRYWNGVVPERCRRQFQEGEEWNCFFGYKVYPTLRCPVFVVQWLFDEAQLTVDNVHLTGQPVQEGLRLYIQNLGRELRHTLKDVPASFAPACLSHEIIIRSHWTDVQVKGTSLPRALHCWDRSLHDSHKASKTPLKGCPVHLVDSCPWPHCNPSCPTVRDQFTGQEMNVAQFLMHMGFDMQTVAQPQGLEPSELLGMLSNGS

pIC50 | SMILES
4.68 | O=C(O)c1cc(-c2ccc(Cl)cc2)c[nH]1 [Compound 160, 4-(4-chlorophenyl)-1H-pyrrole-2-carboxylic acid]
4.16 | OCc1cn(Cc2ccc(Cl)cc2)nn1 [Compound 162, (1-(4-chlorobenzyl)-1H-1,2,3-triazol-4-yl)methanol]
4.15 | NCc1cc(-c2ccc(Cl)cc2)no1 [Compound 167, (3-(4-chlorophenyl)isoxazol-5-yl)methanamine]
< 5.00 | OCc1cc(-c2ccc(Cl)cc2)[nH]n1 [Compound 171, [5-(4-chlorophenyl)-1H-pyrazol-3-yl]methanol]
7.00 | FC(F)(F)c1cc(-n2ccnn2)ccc1Cl [Compound 175, 1-[4-chloro-3-(trifluoromethyl)phenyl]triazole]
5.27 | COc1nnc(-c2cccc(Cl)c2)o1 [Compound 176, 2-(3-chlorophenyl)-5-methoxy-1,3,4-oxadiazole]
7.46 | CN1CC(C)(C)c2cc(-c3nnc(O)o3)ccc21 [Compound 180, 5-(1,3,3-trimethylindolin-5-yl)-1,3,4-oxadiazol-2-ol]
6.59 | FC(F)(F)c1ccc(-c2nnco2)cc1C1COC1 [Compound 181, 2-[3-(oxetan-3-yl)-4-(trifluoromethyl)phenyl]-1,3,4-oxadiazole]
5.93 | Cc1nnnn1-c1ccc(Cl)c(C(F)(F)F)c1 [Compound 182, 1-[4-chloro-3-(trifluoromethyl)phenyl]-5-methyl-tetrazole]
6.37 | FC(F)(F)c1ccc(-c2nnc(S)o2)cc1C1CC1 [Compound 187, 5-[3-cyclopropyl-4-(trifluoromethyl)phenyl]-1,3,4-oxadiazole-2-thiol]
4.61 | FC(F)(F)c1cc(-c2nnco2)cc(C2COC2)c1 [Compound 188, 2-[3-(oxetan-3-yl)-5-(trifluoromethyl)phenyl]-1,3,4-oxadiazole]
7.05 | Cc1nnc(-c2ccc(C3CC3)c(C(F)(F)F)c2)o1 [Compound 190, 2-[4-cyclopropyl-3-(trifluoromethyl)phenyl]-5-methyl-1,3,4-oxadiazole]
5.49 | Cc1cc(C)cc(-n2cnnn2)c1 [Compound 194, 1-(3,5-dimethylphenyl)tetrazole]
< 4.64 | Oc1nnc(-c2cccc(C(F)(F)F)n2)o1 [Compound 206, 5-[6-(trifluoromethyl)-2-pyridyl]-1,3,4-oxadiazol-2-ol]
4.36 | Oc1nnc(-c2ccc(C3CC3)nc2)o1 [Compound 209, 5-(6-cyclopropyl-3-pyridyl)-1,3,4-oxadiazol-2-ol]
6.36 | Oc1nnc(-c2cc(C3CC3)cc(C(F)(F)F)c2)o1 [Compound 211, 5-[3-cyclopropyl-5-(trifluoromethyl)phenyl]-1,3,4-oxadiazol-2-ol]
4.68 | FC(F)(F)c1cc(-c2nnn[nH]2)ccc1Cl [Compound 212, 5-[4-chloro-3-(trifluoromethyl)phenyl]-1H-tetrazole]
5.31 | FC(F)(F)c1cccc(-n2cnnn2)c1 [Compound 213, 1-[3-(trifluoromethyl)phenyl]tetrazole]
5.81 | Clc1ccc(-n2cnnn2)cc1Cl [Compound 214, 1-(3,4-dichlorophenyl)tetrazole]
6.34 | FC(F)(F)c1cc(-n2cnnn2)ccc1Cl [Compound 215, 1-[4-chloro-3-(trifluoromethyl)phenyl]tetrazole]
4.57 | Clc1ccc(-n2cnnn2)cc1 [Compound 216, 1-(4-chlorophenyl)tetrazole]
4.67 | CC(C)c1ccc(-n2cnnn2)cc1 [Compound 217, 1-(4-isopropylphenyl)tetrazole]
4.08 | FC(F)(F)c1cccc(-c2nnco2)n1 [Compound 221, 2-[6-(trifluoromethyl)-2-pyridyl]-1,3,4-oxadiazole]
5.09 | FC(F)(F)c1cc(-c2nnco2)ccn1 [Compound 222, 2-[2-(trifluoromethyl)-4-pyridyl]-1,3,4-oxadiazole]
4.37 | c1nnc(-c2ccc(C3CC3)nc2)o1 [Compound 226, 2-(6-cyclopropyl-3-pyridyl)-1,3,4-oxadiazole]
4.58 | Cn1nc(-c2ccc(Cl)cc2)oc1=O [Compound 229, 5-(4-chlorophenyl)-3-methyl-1,3,4-oxadiazol-2(3H)-one]

pIC50 | SMILES
4.85 | O=c1cc(-c2ccccc2)cc[nH]1 [Compound 236, 4-phenylpyridin-2(1H)-one]
8.44 | [2H]C([2H])([2H])Oc1nnc(-c2ccc(Cl)c(C(F)(F)F)c2Cl)o1 [Compound 241, 2-(2,4-dichloro-3-(trifluoromethyl)phenyl)-5-(methoxy-d3)-1,3,4-oxadiazole]
8.37 | CCOc1nnc(-c2ccc(Cl)c(C(F)(F)F)c2Cl)o1 [Compound 242, 2-(2,4-dichloro-3-(trifluoromethyl)phenyl)-5-ethoxy-1,3,4-oxadiazole]
8.24 | COc1nnc(-c2ccc(Cl)c(C(F)(F)F)c2Cl)o1 [Compound 243, 2-(2,4-dichloro-3-(trifluoromethyl)phenyl)-5-methoxy-1,3,4-oxadiazole]
6.39 | N#CCn1nc(-c2ccc(Cl)c(C(F)(F)F)c2Cl)oc1=O [Compound 244, 2-(5-(2,4-dichloro-3-(trifluoromethyl)phenyl)-2-oxo-1,3,4-oxadiazol-3(2H)-yl)acetonitrile]
7.17 | Cn1nc(-c2ccc(Cl)c(C(F)(F)F)c2Cl)oc1=O [Compound 245, 5-(2,4-dichloro-3-(trifluoromethyl)phenyl)-3-methyl-1,3,4-oxadiazol-2(3H)-one]
6.36 | CN(C)c1nnc(-c2ccc(Cl)c(C(F)(F)F)c2Cl)o1 [Compound 247, 5-(2,4-dichloro-3-(trifluoromethyl)phenyl)-N,N-dimethyl-1,3,4-oxadiazol-2-amine]
7.92 | Nc1nnc(-c2ccc(Cl)c(C(F)(F)F)c2Cl)o1 [Compound 248, 5-[2,4-dichloro-3-(trifluoromethyl)phenyl]-1,3,4-oxadiazol-2-amine]
7.50 | CNc1nnc(-c2ccc(Cl)c(C(F)(F)F)c2Cl)o1 [Compound 249, 5-(2,4-dichloro-3-(trifluoromethyl)phenyl)-N-methyl-1,3,4-oxadiazol-2-amine]
6.16 | OCc1cn(-c2ccc(Cl)c(OC(F)(F)F)c2)nn1 [Compound 270, (1-(4-chloro-3-(trifluoromethoxy)phenyl)-1H-1,2,3-triazol-4-yl)methanol]
5.06 | OCc1cn(-c2ccc(C(F)(F)F)cc2)nn1 [Compound 271, (1-(4-(trifluoromethyl)phenyl)-1H-1,2,3-triazol-4-yl)methanol]
4.20 | OCc1cn(-c2ccccc2F)nn1 [Compound 273, (1-(2-Fluorophenyl)-1H-1,2,3-triazol-4-yl)methanol]
5.65 | OCc1cn(-c2cccc(C(F)(F)F)c2)nn1 [Compound 275, (1-(3-(trifluoromethyl)phenyl)-1H-1,2,3-triazol-4-yl)methanol]
5.97 | OCc1cn(-c2ccc(Cl)c(C3CC3)c2)nn1 [Compound 276, (1-(4-chloro-3-cyclopropylphenyl)-1H-1,2,3-triazol-4-yl)methanol]
8.02 | OCc1cn(-c2ccc(Cl)c(C(F)(F)F)c2Cl)nn1 [Compound 277, [1-[2,4-dichloro-3-(trifluoromethyl)phenyl]triazol-4-yl]methanol]
5.39 | FC(F)(F)c1cc(-c2nnco2)ccc1C1COC1 [Compound 284, 2-(4-(oxetan-3-yl)-3-(trifluoromethyl)phenyl)-1,3,4-oxadiazole]
6.06 | FC(F)(F)c1cc(-n2ccnn2)ccc1N1CCCC1 [Compound 286, 1-(4-(pyrrolidin-1-yl)-3-(trifluoromethyl)phenyl)-1H-1,2,3-triazole]
6.61 | FC1CN(c2cc(-n3ccnn3)ccc2C(F)(F)F)C1 [Compound 288, 1-(3-(3-fluoroazetidin-1-yl)-4-(trifluoromethyl)phenyl)-1H-1,2,3-triazole]
6.85 | OCc1nnc(-c2ccc(Cl)c(C(F)(F)F)c2)o1 [Compound 296, (5-(4-chloro-3-(trifluoromethyl)phenyl)-1,3,4-oxadiazol-2-yl)methanol]
6.87 | FC(F)(F)c1c(Cl)ccc(-n2cnnn2)c1Cl [Compound 298, 1-(2,4-dichloro-3-(trifluoromethyl)phenyl)-1H-tetrazole]
7.57 | Cc1nnc(-c2ccc(Cl)c(C(F)(F)F)c2Cl)o1 [Compound 299, 2-(2,4-dichloro-3-(trifluoromethyl)phenyl)-5-methyl-1,3,4-oxadiazole]
5.88 | FC(F)(F)c1c(Cl)ccc(-n2cnnc2)c1Cl [Compound 300, 4-(2,4-dichloro-3-(trifluoromethyl)phenyl)-4H-1,2,4-triazole]
6.97 | Cc1cn(-c2ccc(Cl)c(C(F)(F)F)c2Cl)nn1 [Compound 301, 1-(2,4-dichloro-3-(trifluoromethyl)phenyl)-4-methyl-1H-1,2,3-triazole]
5.12 | OCCCc1cn(-c2ccc(Cl)c(C(F)(F)F)c2)nn1 [Compound 302, 3-[1-[4-chloro-3-(trifluoromethyl)phenyl]triazol-4-yl]propan-1-ol]
6.83 | OCCc1cn(-c2ccc(Cl)c(C(F)(F)F)c2)nn1 [Compound 303, 2-[1-[4-chloro-3-(trifluoromethyl)phenyl]triazol-4-yl]ethanol]
7.52 | O=C(O)c1cn(-c2ccc(Cl)c(C(F)(F)F)c2Cl)nn1 [Compound 304, 1-[2,4-dichloro-3-(trifluoromethyl)phenyl]triazole-4-carboxylic acid]

SMILES | pIC50
Nc1nnc(-c2ccc(Cl)cc2)s1 [Compound 168, 5-(4-chlorophenyl)-1,3,4-thiadiazol-2-amine] | 5.08
O=c1cccc(-c2ccccc2)[nH]1 [Compound 237, 6-phenylpyridin-2(1H)-one] | 4.30
N#CNc1nnc(-c2ccc(Cl)c(C(F)(F)F)c2Cl)o1 [Compound 246, N-(5-(2,4-dichloro-3-(trifluoromethyl)phenyl)-1,3,4-oxadiazol-2-yl)cyanamide, ammonia salt] | 8.14

Source: patent publication US11634391B2, “Compounds which are inhibitors of Notum” (UCL BUSINESS LTD, priority 2018, dated 2023)
